Measured values as given in patent US20120329761A1, “USE OF TIGECYCLINE FOR TREATMENT OF CANCER” (UNIVERSITY HEALTH NETWORK, priority 2010, published 2012).

Key:
TEX cells [1] = assay: Chemical library screen, MTS assay; type: cell-based, human; conditions: 10 μM, 72 hours
From the text: (§1) To identify compounds active against leukemia stem cells, a library of drugs (n=312) with well-characterized pharmacokinetics and toxicology and a wide therapeutic window was compiled. This library was then screened to identify agents that reduced the viability of TEX and M9-ENL1 cells. TEX and M9-ENL1 cells were derived from lineage-depleted human cord blood cells (Lin-CB) transduced with TLS-ERG or MLL-ENL oncogenes, respectively, and, as shown previously, display properties of stem cells including hierarchal differentiation and marrow repopulation^14,16. In this screen, TEX and M9-ENL1 cells were treated with aliquots of the compounds. After incubation, cell growth and viability was measured by the MTS assay. From this screen, tigecycline was identified.
(§2) TEX, and M9-ENL-1 cells were seeded into 96-well polystyrene tissue culture plates (Corning). […] 72 (TEX) and 48 (M9-ENL-1) hours after incubation, cell growth and viability was measured by MTS assay. […]
(§3) Cell growth and viability was assessed by the MTS assay (Promega, Madison, Wis.) according to the manufacturer's instructions. Apoptosis and cell death was measured by Annexin V-fluoroscein isothiocyanate (FITC; Biovision Research Products, Mountain View, Calif.), propidium iodide staining and flow cytometry according to the manufacturer's instructions and as previously described^30. […]

M9-ENL1 cells = assay: Chemical library screen, MTS assay; type: cell-based, human; conditions: 10 μM, 48 hours
From the text: as §1, §2, §3

TEX cells [2] = assay: Apoptosis by Annexin V flow cytometry; type: cell-based, human; conditions: over time
Description: FIG. 1. […] (A) TEX and (B) M9-ENL1 cells were plated in 96-well plates and drugs were added to the wells (5 μL per well) for final concentrations of 10 μM (shown) and 1 μM. Cell growth and viability was measured at 48 hours (M9-ENL-1) and 72 hours (TEX) by MTS assay. Cell viability is shown for each compound as a percent of cells treated with DMSO alone. (C) Leukemia, (D) myeloma, and (E) solid tumor cell lines were seeded in 96-well plates and then treated with increasing concentrations of tigecycline. Cell growth and viability was measured at 72 hours by MTS assay. Cell viability is expressed as mean percentage plus or minus SD (n=3) relative to vehicle-treated cells. […] Cell viability was measured at 72 hours by MTS assay. Cell viability is expressed as mean percentage plus or minus SD (n=3) relative to vehicle-treated cells.
Cell growth and viability was assessed by the MTS assay (Promega, Madison, Wis.) according to the manufacturer's instructions. Apoptosis and cell death was measured by Annexin V-fluoroscein isothiocyanate (FITC; Biovision Research Products, Mountain View, Calif.), propidium iodide staining and flow cytometry according to the manufacturer's instructions and as previously described^30.

primary human AML cells = type: in vivo, NOD-SCID mice; conditions: 100 mg/kg i.p. daily for three weeks, vs vehicle control
Description: FIG. 3. Tigecycline has anti-leukemia activity in vivo. (A, B) Human leukemia (OCI-AML2) were injected subcutaneously into the flank of SCID mice. Seven days after injection, once tumors were palpable, mice were treated with tigecycline (50 mg/kg or 100 mg/kg twice daily by i.p. injection) or vehicle control (n=10 per group). Fourteen days after injection of cells, mice were sacrificed, tumors excised and the volume and mass of the tumors were measured. The tumor mass and the mean volume+SD are shown. Differences in tumor volume and mass were analyzed by an unpaired t-test: * p<0.001. (C) Tumours from two control mice, and three tigecycline-treated mice were excised after 5 days of treatment and total proteins were extracted and analyzed by western blotting for Cox-1, Cox-2, Cox-4, and tubulin. […] Following treatment, human leukemia cell engraftment in the injected right femur was measured by FACS analysis for human CD45^+CD19^−CD33^+ cells. […] Six weeks later, human leukemia cell engraftment in the injected right femur was measured by FACS analysis for human CD45^+CD19^−CD33^+ cells. […]
To assess tigecycline in mouse models of primary AML, primary human AML cells were isolated form a fresh peripheral blood sample from a patient with AML. A frozen aliquot was thawed, counted and resuspended in PBS. […]

CN(C)c1cc(NC(=O)CNC(C)(C)C)c(O)c2c1C[C@H]1C[C@H]3[C@H](N(C)C)C(O)=C(C(N)=O)C(=O)[C@@]3(O)C(O)=C1C2=O [tigecycline]
screen result, cell growth and viability (TEX cells [1]): identified
screen result, cell growth and viability (M9-ENL1 cells): identified
apoptosis, percentage of cells labeled by Annexin V (TEX cells [2]): time-dependent increases in apoptosis
engraftment of human AML cells (CD45+CD33+CD19-) in marrow (primary human AML cells): significantly decreased
